The values below come from the supplement of paper PMC10307832.

Common to all, as to experiment: relative viability (nuclei count vs DMSO), 5 days (fraction); higher = more cells survive
Compound in the assay “Elesclomol + Tozasertib”: CN(NC(=O)CC(=O)NN(C)C(=S)c1ccccc1)C(=S)c1ccccc1 [Elesclomol] + Cc1cc(Nc2cc(N3CCN(C)CC3)nc(Sc3ccc(NC(=O)C4CC4)cc3)n2)n[nH]1 [Tozasertib] (partner 0.1 µM)
The gist of the method:
(§1)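 Five library-drug doses in √10 steps were combined with a fixed anchor-drug dose, or a single drug was given alone, by pin tool to lung cancer cell lines in 1536-well plates the day after seeding. Nuclei were stained and counted after 5 days. Relative viability is the nuclei count in treated wells over that in vehicle wells, taken as the median of duplicate plates.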

Compound in the assay “Elesclomol + Phenformin”: CN(NC(=O)CC(=O)NN(C)C(=S)c1ccccc1)C(=S)c1ccccc1 [Elesclomol] + N=C(N)NC(=N)NCCc1ccccc1 [Phenformin] (partner 250 µM)
The essentials:
as §1

Compound in the assay “Elesclomol + Alpelisib”: CN(NC(=O)CC(=O)NN(C)C(=S)c1ccccc1)C(=S)c1ccccc1 [Elesclomol] + Cc1nc(NC(=O)N2CCC[C@H]2C(N)=O)sc1-c1ccnc(C(C)(C)C(F)(F)F)c1 [Alpelisib] (partner 2 µM)
The essentials: as §1

Compound in the assay “Elesclomol + Pictilisib”: CN(NC(=O)CC(=O)NN(C)C(=S)c1ccccc1)C(=S)c1ccccc1 [Elesclomol] + CS(=O)(=O)N1CCN(Cc2cc3nc(-c4cccc5[nH]ncc45)nc(N4CCOCC4)c3s2)CC1 [Pictilisib] (partner 1 µM)
The gist of the method: as §1

Compound in the assay “Elesclomol + Vorinostat”: CN(NC(=O)CC(=O)NN(C)C(=S)c1ccccc1)C(=S)c1ccccc1 [Elesclomol] + O=C(CCCCCCC(=O)Nc1ccccc1)NO [Vorinostat] (partner 1 µM)
The gist of the method: as §1

PC-3 [JPC-3]: the relative viability with Elesclomol + Tozasertib (first compound 0.003162 µM) came out at 0.913; with Elesclomol + Tozasertib (first compound 0.01 µM) it was 0.783; with Elesclomol + Tozasertib (first compound 0.03162 µM), 0.941; in the assay with Elesclomol + Tozasertib (first compound 0.1 µM) it was 0.569; in the assay with Elesclomol + Phenformin (first compound 0.003162 µM), 0.474; with Elesclomol + Phenformin (first compound 0.01 µM), 0.474. Besides, the relative viability with Elesclomol + Phenformin (first compound 0.03162 µM) turned out to be 0.496; with Elesclomol + Phenformin (first compound 0.1 µM), 0.401; with Elesclomol + Alpelisib (first compound 0.003162 µM), 0.981; with Elesclomol + Alpelisib (first compound 0.01 µM), 0.958; with Elesclomol + Alpelisib (first compound 0.03162 µM), 1.04; in the assay with Elesclomol + Alpelisib (first compound 0.1 µM), 0.778. The relative viability with Elesclomol + Pictilisib (first compound 0.003162 µM) came out at 0.738; in the assay with Elesclomol + Pictilisib (first compound 0.01 µM), 0.604; with Elesclomol + Pictilisib (first compound 0.03162 µM), 0.878; with Elesclomol + Pictilisib (first compound 0.1 µM), 0.581; in the assay with Elesclomol + Vorinostat (first compound 0.003162 µM), 0.779; with Elesclomol + Vorinostat (first compound 0.01 µM), 0.489. For the same cell line, the relative viability is 0.466 with Elesclomol + Vorinostat (first compound 0.03162 µM) and 0.372 in the assay with Elesclomol + Vorinostat (first compound 0.1 µM).
As to PC-14, the relative viability was found to be 0.502 with Elesclomol + Tozasertib (first compound 0.003162 µM); 0.0652 in the assay with Elesclomol + Tozasertib (first compound 0.01 µM); 0.0256 with Elesclomol + Tozasertib (first compound 0.03162 µM); 0.0175 in the assay with Elesclomol + Tozasertib (first compound 0.1 µM); 0.404 in the assay with Elesclomol + Phenformin (first compound 0.003162 µM); 0.16 with Elesclomol + Phenformin (first compound 0.01 µM). Moreover, the relative viability turned out to be 0.0586 with Elesclomol + Phenformin (first compound 0.03162 µM); 0.023 in the assay with Elesclomol + Phenformin (first compound 0.1 µM); 0.913 with Elesclomol + Alpelisib (first compound 0.003162 µM); 0.558 with Elesclomol + Alpelisib (first compound 0.01 µM); 0.0506 with Elesclomol + Alpelisib (first compound 0.03162 µM); 0.0344 with Elesclomol + Alpelisib (first compound 0.1 µM). The relative viability in the assay with Elesclomol + Pictilisib (first compound 0.003162 µM) stood at 0.417; with Elesclomol + Pictilisib (first compound 0.01 µM), 0.0984; with Elesclomol + Pictilisib (first compound 0.03162 µM), 0.05; with Elesclomol + Pictilisib (first compound 0.1 µM) it was 0.0156; with Elesclomol + Vorinostat (first compound 0.003162 µM), 0.0807; in the assay with Elesclomol + Vorinostat (first compound 0.01 µM), 0.0343. Further, the values for the relative viability with Elesclomol + Vorinostat (first compound 0.03162 µM) and in the assay with Elesclomol + Vorinostat (first compound 0.1 µM) were 0.0162 and 0.0149, respectively.
For the cell line RERF-LC-KJ, the relative viability in the assay with Elesclomol + Tozasertib (first compound 0.003162 µM) worked out at 0.264; in the assay with Elesclomol + Tozasertib (first compound 0.01 µM), 0.239; in the assay with Elesclomol + Tozasertib (first compound 0.03162 µM), 0.208; with Elesclomol + Tozasertib (first compound 0.1 µM), 0.116; in the assay with Elesclomol + Phenformin (first compound 0.003162 µM), 0.341; with Elesclomol + Phenformin (first compound 0.01 µM), 0.347. The relative viability in the assay with Elesclomol + Phenformin (first compound 0.03162 µM) is 0.267; with Elesclomol + Phenformin (first compound 0.1 µM), 0.218; in the assay with Elesclomol + Alpelisib (first compound 0.003162 µM) it was 0.702; with Elesclomol + Alpelisib (first compound 0.01 µM) it was 0.352; with Elesclomol + Alpelisib (first compound 0.03162 µM), 0.252; with Elesclomol + Alpelisib (first compound 0.1 µM), 0.275. Further, the relative viability in the assay with Elesclomol + Pictilisib (first compound 0.003162 µM) is 0.408; with Elesclomol + Pictilisib (first compound 0.01 µM), 0.19; in the assay with Elesclomol + Pictilisib (first compound 0.03162 µM), 0.243; in the assay with Elesclomol + Pictilisib (first compound 0.1 µM), 0.234; with Elesclomol + Vorinostat (first compound 0.003162 µM) it was 0.445; with Elesclomol + Vorinostat (first compound 0.01 µM), 0.406. In addition, the results for the relative viability with Elesclomol + Vorinostat (first compound 0.03162 µM) and with Elesclomol + Vorinostat (first compound 0.1 µM) were 0.473 and 0.256, respectively.
For SK-LU-1, the relative viability with Elesclomol + Tozasertib (first compound 0.003162 µM) was 0.336; with Elesclomol + Tozasertib (first compound 0.01 µM) it was 0.271; with Elesclomol + Tozasertib (first compound 0.03162 µM), 0.238; with Elesclomol + Tozasertib (first compound 0.1 µM), 0.15; in the assay with Elesclomol + Phenformin (first compound 0.003162 µM), 0.643; with Elesclomol + Phenformin (first compound 0.01 µM), 0.287. Further, the relative viability with Elesclomol + Phenformin (first compound 0.03162 µM) amounted to 0.305; with Elesclomol + Phenformin (first compound 0.1 µM), 0.161; with Elesclomol + Alpelisib (first compound 0.003162 µM) it was 0.987; with Elesclomol + Alpelisib (first compound 0.01 µM) it was 0.674; in the assay with Elesclomol + Alpelisib (first compound 0.03162 µM) it was 0.294; with Elesclomol + Alpelisib (first compound 0.1 µM), 0.1. Further, the relative viability was determined as 0.55 in the assay with Elesclomol + Pictilisib (first compound 0.003162 µM); 0.469 with Elesclomol + Pictilisib (first compound 0.01 µM); 0.319 with Elesclomol + Pictilisib (first compound 0.03162 µM); 0.178 with Elesclomol + Pictilisib (first compound 0.1 µM); 0.83 in the assay with Elesclomol + Vorinostat (first compound 0.003162 µM); 0.659 in the assay with Elesclomol + Vorinostat (first compound 0.01 µM). The relative viability with Elesclomol + Vorinostat (first compound 0.03162 µM) is 0.471; in the assay with Elesclomol + Vorinostat (first compound 0.1 µM), 0.336.
As to SK-MES-1, the relative viability with Elesclomol + Tozasertib (first compound 0.003162 µM) turned out to be 0.842; with Elesclomol + Tozasertib (first compound 0.01 µM), 0.791; in the assay with Elesclomol + Tozasertib (first compound 0.03162 µM), 0.318; with Elesclomol + Tozasertib (first compound 0.1 µM) it was 0.479; with Elesclomol + Phenformin (first compound 0.003162 µM), 0.644; with Elesclomol + Phenformin (first compound 0.01 µM) it was 0.456. In addition, the relative viability in the assay with Elesclomol + Phenformin (first compound 0.03162 µM) is 0.506; with Elesclomol + Phenformin (first compound 0.1 µM), 0.421; with Elesclomol + Alpelisib (first compound 0.003162 µM), 0.854; with Elesclomol + Alpelisib (first compound 0.01 µM) it was 0.502; in the assay with Elesclomol + Alpelisib (first compound 0.03162 µM), 0.679; in the assay with Elesclomol + Alpelisib (first compound 0.1 µM), 0.279. In addition, the relative viability in the assay with Elesclomol + Pictilisib (first compound 0.003162 µM) is 0.402; with Elesclomol + Pictilisib (first compound 0.01 µM) it was 0.312; with Elesclomol + Pictilisib (first compound 0.03162 µM), 0.238; in the assay with Elesclomol + Pictilisib (first compound 0.1 µM) it was 0.199; with Elesclomol + Vorinostat (first compound 0.003162 µM) it was 1.13; with Elesclomol + Vorinostat (first compound 0.01 µM) it was 0.481. Further, the relative viability worked out at 0.425 with Elesclomol + Vorinostat (first compound 0.03162 µM) and 0.284 with Elesclomol + Vorinostat (first compound 0.1 µM).
Turning to SW 1573, the relative viability stood at 0.133 in the assay with Elesclomol + Tozasertib (first compound 0.003162 µM); 0.119 in the assay with Elesclomol + Tozasertib (first compound 0.01 µM); 0.0792 in the assay with Elesclomol + Tozasertib (first compound 0.03162 µM); 0.0199 in the assay with Elesclomol + Tozasertib (first compound 0.1 µM); 0.274 with Elesclomol + Phenformin (first compound 0.003162 µM); 0.114 with Elesclomol + Phenformin (first compound 0.01 µM). In addition, the relative viability was 0.159 in the assay with Elesclomol + Phenformin (first compound 0.03162 µM); 0.0405 with Elesclomol + Phenformin (first compound 0.1 µM); 0.728 with Elesclomol + Alpelisib (first compound 0.003162 µM); 0.211 with Elesclomol + Alpelisib (first compound 0.01 µM); 0.143 with Elesclomol + Alpelisib (first compound 0.03162 µM); 0.0815 in the assay with Elesclomol + Alpelisib (first compound 0.1 µM). For the same cell line, the relative viability with Elesclomol + Pictilisib (first compound 0.003162 µM) amounted to 0.479; with Elesclomol + Pictilisib (first compound 0.01 µM), 0.121; with Elesclomol + Pictilisib (first compound 0.03162 µM), 0.104; in the assay with Elesclomol + Pictilisib (first compound 0.1 µM), 0.074; in the assay with Elesclomol + Vorinostat (first compound 0.003162 µM) it was 0.331; with Elesclomol + Vorinostat (first compound 0.01 µM), 0.107. Further, the results for the relative viability with Elesclomol + Vorinostat (first compound 0.03162 µM) and with Elesclomol + Vorinostat (first compound 0.1 µM) were 0.112 and 0.0259, respectively.
UMC-11: the relative viability was 0.205 with Elesclomol + Tozasertib (first compound 0.003162 µM); 0.199 with Elesclomol + Tozasertib (first compound 0.01 µM); 0.185 in the assay with Elesclomol + Tozasertib (first compound 0.03162 µM); 0.168 with Elesclomol + Tozasertib (first compound 0.1 µM); 0.312 with Elesclomol + Phenformin (first compound 0.003162 µM); 0.343 in the assay with Elesclomol + Phenformin (first compound 0.01 µM). In addition, the relative viability with Elesclomol + Phenformin (first compound 0.03162 µM) worked out at 0.328; with Elesclomol + Phenformin (first compound 0.1 µM), 0.31; with Elesclomol + Alpelisib (first compound 0.003162 µM), 0.949; with Elesclomol + Alpelisib (first compound 0.01 µM), 0.931; with Elesclomol + Alpelisib (first compound 0.03162 µM) it was 0.488; with Elesclomol + Alpelisib (first compound 0.1 µM), 0.363. Further, the relative viability with Elesclomol + Pictilisib (first compound 0.003162 µM) came to 0.827; with Elesclomol + Pictilisib (first compound 0.01 µM), 0.67; with Elesclomol + Pictilisib (first compound 0.03162 µM), 0.561; with Elesclomol + Pictilisib (first compound 0.1 µM), 0.44; with Elesclomol + Vorinostat (first compound 0.003162 µM), 0.391; in the assay with Elesclomol + Vorinostat (first compound 0.01 µM) it was 0.333. Further, the relative viability amounted to 0.411 in the assay with Elesclomol + Vorinostat (first compound 0.03162 µM) and 0.255 with Elesclomol + Vorinostat (first compound 0.1 µM).
